Measured values from ChEMBL document CHEMBL6087475, “Current and Emerging Approaches Targeting G9a for the Treatment of Various Diseases” (J Med Chem, 2025).
pEC50, pIC50: −log10 of the molar value.

Key:
PANC-1 = test: Antiproliferative activity against human PANC-1 cells assessed as reduction in cell growth incubated for 24 hrs by MTT assay; type: functional, cell-based; conditions: PANC-1, 24 h
[1] = molecular target: von Hippel-Lindau disease tumor suppressor/Histone-lysine N-methyltransferase EHMT2 (Homo sapiens, UniProt Q96KQ7+P40337); test: PROTAC activity at G9a/VHL in human 22Rv1 cells assessed as induction of G9a degradation at 1 uM incubated for 24 hrs by Western blot analysis; type: cell-based
[2] = molecular target: von Hippel-Lindau disease tumor suppressor/Histone-lysine N-methyltransferase EHMT1 (Homo sapiens, UniProt Q9H9B1+P40337); test: PROTAC activity at GLP/VHL in human 22Rv1 cells assessed as induction of GLP degradation at 1 uM incubated for 24 hrs by Western blot analysis; type: cell-based
[3] = molecular target: DNA (cytosine-5)-methyltransferase 1 (Homo sapiens, UniProt P26358); test: Inhibition of DNMT1 (unknown origin)
MCF7 = test: Antiproliferative activity against human MCF7 cells assessed as reduction in cell growth measured after 72 hrs by MTT assay; type: functional, cell-based; conditions: MCF7, 72 h
A549 = test: Antiproliferative activity against human A549 cells assessed as reduction in cell viability measured after 72 hrs by MTT assay; type: functional, cell-based; conditions: A549, 72 h
[4] = molecular target: T1, Histone-lysine N-methyltransferase EHMT1/EHMT2 (Homo sapiens, UniProt Q9H9B1+Q96KQ7); test: Inhibition of G9a/GLP in human MDA-MB-231 cells assessed as reduction in H3K9 dimethylation incubated for 3 days by Western blotting analysis; type: cell-based
T1 sequence (Q9H9B1 whole entry): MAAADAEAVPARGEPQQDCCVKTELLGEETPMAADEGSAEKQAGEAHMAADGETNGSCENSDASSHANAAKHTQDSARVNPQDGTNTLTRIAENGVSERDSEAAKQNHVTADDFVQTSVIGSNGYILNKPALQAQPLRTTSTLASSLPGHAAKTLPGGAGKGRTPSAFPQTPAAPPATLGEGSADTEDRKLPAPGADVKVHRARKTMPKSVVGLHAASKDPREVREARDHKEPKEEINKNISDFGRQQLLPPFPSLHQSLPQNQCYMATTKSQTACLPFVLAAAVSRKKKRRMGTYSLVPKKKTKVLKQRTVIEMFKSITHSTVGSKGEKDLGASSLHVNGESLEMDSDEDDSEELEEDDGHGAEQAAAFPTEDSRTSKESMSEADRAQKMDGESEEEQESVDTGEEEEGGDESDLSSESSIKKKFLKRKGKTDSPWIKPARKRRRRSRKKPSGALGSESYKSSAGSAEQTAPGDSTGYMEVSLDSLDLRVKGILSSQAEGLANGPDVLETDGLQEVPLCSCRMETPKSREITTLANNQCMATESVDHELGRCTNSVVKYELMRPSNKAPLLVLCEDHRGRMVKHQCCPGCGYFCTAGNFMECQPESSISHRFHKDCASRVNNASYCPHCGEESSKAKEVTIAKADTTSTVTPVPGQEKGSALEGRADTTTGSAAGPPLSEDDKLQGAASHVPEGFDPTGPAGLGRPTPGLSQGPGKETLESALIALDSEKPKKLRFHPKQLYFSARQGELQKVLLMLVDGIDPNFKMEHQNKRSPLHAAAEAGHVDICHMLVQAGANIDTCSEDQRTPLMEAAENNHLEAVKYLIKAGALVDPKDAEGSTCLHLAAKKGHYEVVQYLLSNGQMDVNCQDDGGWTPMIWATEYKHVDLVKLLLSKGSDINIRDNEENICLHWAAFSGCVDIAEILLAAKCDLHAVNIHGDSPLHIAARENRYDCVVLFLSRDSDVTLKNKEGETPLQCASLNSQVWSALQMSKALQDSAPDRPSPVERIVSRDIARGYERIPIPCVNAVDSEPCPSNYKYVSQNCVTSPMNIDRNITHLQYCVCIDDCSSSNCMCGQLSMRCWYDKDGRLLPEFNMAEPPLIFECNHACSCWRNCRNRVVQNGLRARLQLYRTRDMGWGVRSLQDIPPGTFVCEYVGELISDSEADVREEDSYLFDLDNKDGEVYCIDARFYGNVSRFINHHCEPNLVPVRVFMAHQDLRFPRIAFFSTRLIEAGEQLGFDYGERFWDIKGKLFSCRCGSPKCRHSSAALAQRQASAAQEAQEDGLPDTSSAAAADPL
T1 sequence (Q96KQ7 whole entry): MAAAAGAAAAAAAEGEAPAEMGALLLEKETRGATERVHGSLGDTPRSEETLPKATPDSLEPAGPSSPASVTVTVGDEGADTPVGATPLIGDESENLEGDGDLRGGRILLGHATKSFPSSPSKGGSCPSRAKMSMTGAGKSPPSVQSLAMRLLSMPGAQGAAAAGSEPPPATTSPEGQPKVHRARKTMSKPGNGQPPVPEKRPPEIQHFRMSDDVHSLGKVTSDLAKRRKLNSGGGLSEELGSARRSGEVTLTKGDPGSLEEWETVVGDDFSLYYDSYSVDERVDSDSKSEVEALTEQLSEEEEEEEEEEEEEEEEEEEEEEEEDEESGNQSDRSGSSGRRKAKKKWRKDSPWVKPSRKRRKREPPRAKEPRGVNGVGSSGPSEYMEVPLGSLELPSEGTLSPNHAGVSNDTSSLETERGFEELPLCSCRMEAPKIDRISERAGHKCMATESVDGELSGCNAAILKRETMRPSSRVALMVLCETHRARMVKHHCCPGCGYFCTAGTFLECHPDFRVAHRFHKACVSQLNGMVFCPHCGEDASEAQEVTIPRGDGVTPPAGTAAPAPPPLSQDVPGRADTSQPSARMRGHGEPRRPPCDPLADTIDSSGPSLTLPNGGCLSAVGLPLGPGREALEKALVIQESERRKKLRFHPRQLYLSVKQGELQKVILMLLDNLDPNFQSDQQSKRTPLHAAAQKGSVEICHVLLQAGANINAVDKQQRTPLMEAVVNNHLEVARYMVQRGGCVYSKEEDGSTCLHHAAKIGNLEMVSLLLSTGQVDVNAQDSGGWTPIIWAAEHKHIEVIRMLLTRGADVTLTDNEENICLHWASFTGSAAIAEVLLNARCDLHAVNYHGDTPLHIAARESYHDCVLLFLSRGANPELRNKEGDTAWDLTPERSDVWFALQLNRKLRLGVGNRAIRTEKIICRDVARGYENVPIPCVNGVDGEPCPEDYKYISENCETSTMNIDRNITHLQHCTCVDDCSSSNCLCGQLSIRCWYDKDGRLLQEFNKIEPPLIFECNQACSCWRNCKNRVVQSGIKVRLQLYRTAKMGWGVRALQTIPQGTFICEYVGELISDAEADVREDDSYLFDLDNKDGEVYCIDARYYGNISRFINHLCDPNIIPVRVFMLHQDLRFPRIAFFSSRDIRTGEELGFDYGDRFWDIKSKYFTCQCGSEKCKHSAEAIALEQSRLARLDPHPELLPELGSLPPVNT

[5] = Cmax in mouse at 25 mg/kg, ip; type: ADME, organism-based; conditions: in vivo
[6] = molecular target: T2, Histone-lysine N-methyltransferase EHMT2 (Homo sapiens, UniProt Q96KQ7); test: Inhibition of G9a (unknown origin)
T2 sequence (Q96KQ7 whole entry): T1 sequence (Q96KQ7 whole entry)

K562 = test: Antiproliferative activity against human K562 cells assessed as reduction in cell growth measured after 72 hrs by MTT assay; type: functional, cell-based; conditions: K562, 72 h

DNA (cytosine-5)-methyltransferase 1, sequence (P26358 whole entry): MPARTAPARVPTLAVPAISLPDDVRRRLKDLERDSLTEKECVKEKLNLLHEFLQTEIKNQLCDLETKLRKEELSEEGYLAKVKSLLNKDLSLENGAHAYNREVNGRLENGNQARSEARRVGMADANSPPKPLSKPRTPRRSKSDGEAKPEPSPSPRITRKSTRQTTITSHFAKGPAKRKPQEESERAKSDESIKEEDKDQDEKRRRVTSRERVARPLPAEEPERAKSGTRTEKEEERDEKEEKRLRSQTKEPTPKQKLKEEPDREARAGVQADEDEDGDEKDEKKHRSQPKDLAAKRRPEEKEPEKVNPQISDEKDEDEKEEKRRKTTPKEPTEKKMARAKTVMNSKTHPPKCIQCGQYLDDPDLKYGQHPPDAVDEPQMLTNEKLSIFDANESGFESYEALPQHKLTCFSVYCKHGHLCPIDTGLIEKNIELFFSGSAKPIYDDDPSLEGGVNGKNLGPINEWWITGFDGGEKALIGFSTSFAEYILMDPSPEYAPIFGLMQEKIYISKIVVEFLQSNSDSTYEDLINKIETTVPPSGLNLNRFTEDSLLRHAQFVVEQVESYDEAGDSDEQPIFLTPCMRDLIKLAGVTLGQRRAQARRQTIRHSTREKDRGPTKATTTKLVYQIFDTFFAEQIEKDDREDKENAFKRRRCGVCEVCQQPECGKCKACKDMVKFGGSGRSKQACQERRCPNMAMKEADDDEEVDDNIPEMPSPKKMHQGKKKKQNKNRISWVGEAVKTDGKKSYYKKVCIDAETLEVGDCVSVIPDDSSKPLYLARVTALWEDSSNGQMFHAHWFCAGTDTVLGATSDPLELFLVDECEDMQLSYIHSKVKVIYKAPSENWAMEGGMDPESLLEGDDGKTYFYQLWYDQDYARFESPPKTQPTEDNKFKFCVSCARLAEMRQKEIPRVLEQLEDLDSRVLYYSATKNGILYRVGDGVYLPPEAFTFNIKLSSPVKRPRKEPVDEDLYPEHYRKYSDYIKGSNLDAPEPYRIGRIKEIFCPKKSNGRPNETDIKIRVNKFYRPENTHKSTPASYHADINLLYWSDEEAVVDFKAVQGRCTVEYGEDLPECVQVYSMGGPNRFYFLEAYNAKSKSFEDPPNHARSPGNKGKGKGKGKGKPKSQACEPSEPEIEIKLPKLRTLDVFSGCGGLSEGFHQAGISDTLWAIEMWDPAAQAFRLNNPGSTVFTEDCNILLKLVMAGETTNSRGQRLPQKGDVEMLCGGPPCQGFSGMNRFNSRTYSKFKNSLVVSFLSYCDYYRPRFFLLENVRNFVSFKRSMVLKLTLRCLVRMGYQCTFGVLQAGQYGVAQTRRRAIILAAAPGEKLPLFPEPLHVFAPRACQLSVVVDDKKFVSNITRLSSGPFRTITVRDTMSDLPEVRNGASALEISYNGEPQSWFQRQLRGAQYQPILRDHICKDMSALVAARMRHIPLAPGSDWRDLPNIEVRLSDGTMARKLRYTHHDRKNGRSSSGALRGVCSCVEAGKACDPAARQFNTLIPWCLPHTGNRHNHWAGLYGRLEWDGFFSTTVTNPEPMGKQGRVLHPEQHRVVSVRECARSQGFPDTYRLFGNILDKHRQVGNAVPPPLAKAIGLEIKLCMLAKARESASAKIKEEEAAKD
von Hippel-Lindau disease tumor suppressor/Histone-lysine N-methyltransferase EHMT2, sequence (P40337 whole entry, one chain of several): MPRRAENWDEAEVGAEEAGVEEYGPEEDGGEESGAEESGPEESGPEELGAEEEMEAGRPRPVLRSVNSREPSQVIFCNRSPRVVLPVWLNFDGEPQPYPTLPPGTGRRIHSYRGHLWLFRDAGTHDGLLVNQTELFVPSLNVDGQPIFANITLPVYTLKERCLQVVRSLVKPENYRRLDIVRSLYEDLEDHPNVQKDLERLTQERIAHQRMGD
von Hippel-Lindau disease tumor suppressor/Histone-lysine N-methyltransferase EHMT1, sequence (P40337 whole entry, one chain of several): as above

SMILES | pIC50 [3] | pIC50 [6] | other results
COC(=O)c1ccc2c(c1)nc(NC(=O)c1ccccc1)n2CCCc1ccccc1 | – | – | pEC50 (PANC-1): 5.30
COc1cc2c(NC3CCN(CCCC(=O)NCCCCCCCCNc4cccc5c4C(=O)N(C4CCC(=O)NC4=O)C5=O)CC3)nc(C3CCCCC3)nc2cc1OCCCN1CCCC1 (configuration not stated) | – | – | DC50 [1]: 0.1 µM; DC50 [2]: > 10 µM
CCN1C[C@H](NC(=O)c2cc3cc(Cl)ccc3[nH]2)[C@@H](OC)C1 | 8.74 | – | –
COc1ccc2c(NC3CCN(Cc4ccccc4)CC3)nc(NCCNC(=O)CCCCC(=O)NO)nc2c1 | – | – | pEC50 (MCF7): 4.43; pEC50 (A549): 4.44; IC50 [4]: 7.136 µM
Cc1c(C(=O)N[C@@H](CCC2CC2)C(=O)Nc2ccc(C#N)cc2)[nH]c2c1C(=O)CC(C)(C)C2 | 7.57 | – | Cmax [5]: 42.4 µM
COc1cc2nc(N3CCOCC3)nc(NC3CCN(C)CC3)c2cc1OC | – | 7.89 | –
CCN(c1cc(-c2ccc(CN3CCOCC3)cc2)cc(C(=O)NCc2c(C)cc(C)[nH]c2=O)c1C)C1CCOCC1 [TAZEMETOSTAT] | – | 8.54 | –
CN(C)C(=O)Nc1ccc(CN2CCC(C(O)(c3ccc(C(F)(F)F)cc3)c3ccc(C(F)(F)F)cc3)CC2)cc1 | 5.19 | – | pIC50 (K562): 5.77
COc1cc2c(cc1OC)-c1c(C)c3cc(OC)c(OC)cc3c[n+]1CC2 | 4.79 | – | –
COc1cc2c(C3CCOCC3)nc(N)nc2cc1OCCCN1CCCC1 | – | 6.90 | –
Cc1ccc(SS(=O)(=O)c2ccc(C)cc2)cc1 | 5.51 | – | –
CCOc1ccc(Nc2cc(C)nc3ccc(Cl)cc23)cc1 | – | 7.17 | –
